Assay results reported in publication PMC11676834, “Composition of Triterpene Glycosides of the Far Eastern Sea Cucumber Cucumaria conicospermium Levin et Stepanov; Structure Elucidation of Five Minor Conicospermiumosides A3-1, A3-2, A3-3, A7-1, and A7-2; Cytotoxicity of the Glycosides Against Human Breast Cancer Cell Lines; Structure–Activity …” (Marine Drugs, 2024).
Where two headings read alike, the source gives them in different places.

How the values were obtained:
human erythrocytes = experiment: Hemolytic activity; format: cell-based; conditions: 1 h at 37 °C; for HC50: Erythrocyte, read-out: ED50, Erythrocytes (hemolytic activity)
Method: Human blood (B(III) Rh+) was used to obtain erythrocytes by centrifuging 450× g three times for 5 min with phosphate-buffered saline (PBS) (pH 7.4) at 4 °C on centrifuge LABOFUGE 400R (Heraeus, Hanau, Germany). Ice-cold PBS (pH 7.4) was used for resuspension of erythrocytes residue to a final optical density of 1.5 at 700 nm, which was kept on ice. Then, 10 µL of tested compound solution or control (okhotoside A1-1 (7)) were added to 90 µL of erythrocyte suspension in V-bottom 96-well plates and exposed for 1 h at 37 °C. Next, centrifugation at 900× g for 10 min on a laboratory centrifuge LMC-3000 (Biosan, Riga, Latvia), led to separation of layers, and 80 µL of supernatant was carefully decanted and transferred into new flat-plate for each. The values of erythrocyte lysis were measured on microplate photometer Multiskan FC (Thermo Fisher Scientific, Waltham, MA, USA) at λ = 570 nm as hemoglobin concentration in supernatant. The effective dose, causing lysis of 50% erythrocytes (ED50), was calculated with SigmaPlot 14.0 software. All the experiments were carried out in triple repetitions, p ≤ 0.05.

in vitro = format: cell-based, human; conditions: human
Excerpt: (§1) Human erythrocytes were purchased from the Station of Blood Transfusion, Vladivostok. Human mammary epithelial cell line MCF-10A CRL-10317, human breast cancer cell lines T-47D HTB-133, MCF-7 HTB-22, and MDA-MB-231 CRM-HTB-26 were received from ATCC (Manassas, VA, USA). Culturing conditions: medium of RPMI-1640 with 1% penicillin/streptomycin (Biolot, St. Petersburg, Russia) and 10% fetal bovine serum (FBS) (Biolot, St. Petersburg, Russia) for the T-47D cell line; Minimum Essential Medium (MEM) with 1% penicillin/streptomycin sulfate (Biolot, St. Petersburg, Russia) and FBS (Biolot, St. Petersburg, Russia) to a final concentration of 10% for MCF-7 and MDA-MB-231 cells; DMEM/F12 medium with 10% FBS, 20 ng/mL EGF, […] hydrocortisone, 100 ng/mL cholera toxin, 10 μg/mL insulin, and 1% penicillin/streptomycin (BioinnLabs, Rostov-on-Don, Russia) for MCF-10A cell line.
(§2) The concentrations of tested glycosides were 0.1–50 µM; positive controls were cisplatin and okhotoside A1-1 (7). […] Then, the solutions of tested compounds with medium were replaced by 100 µL of fresh medium, and 10 µL of 3-(4,5-dimethylthiazol-2-yl)-2,5-diphenyltetrazolium bromide (MTT) (PanReac, AppliChem, Darmstadt, Germany) stock solution (5 mg/mL) was added to each well and incubated for 4 h, followed by the addition of 100 µL of SDS-HCl solution (1 g SDS/10 mL d-H2O/17 µL 6 N HCl) and further incubated for 18 h. Multiskan FC microplate photometer (Thermo Fisher Scientific, Waltham, MA, USA) was used to measure the absorbance of the converted dye formazan at 570 nm. The concentration caused the 50% cell metabolic activity inhibition (IC50) expresses the cytotoxic activity of each glycoside. The experiments were conducted in triplicate, p ≤ 0.05.

MCF-7 cells = experiment: cells; format: cell-based, human; conditions: MTT, 24 h, read-out: Cytotoxicity, IC50, MCF-7
Excerpt: as §1
(§3) The concentrations of tested glycosides were 0.1–50 µM; positive controls were cisplatin and okhotoside A1-1 (7). Methodology: to each well of 96-well plates, the cell suspension (180 µL) with solution (20 µL) of tested glycoside in a certain concentration was placed (MCF-10A, MCF-7, T-47D, and MDA-MB-231—7 × 10^3 cells per well) and incubated in the atmosphere with 5% CO2 at 37 °C for 24 h. Then, the solutions of tested compounds with medium were replaced by 100 µL of fresh medium, and 10 µL of 3-(4,5-dimethylthiazol-2-yl)-2,5-diphenyltetrazolium bromide (MTT) (PanReac, AppliChem, Darmstadt, Germany) stock solution (5 mg/mL) was added to each well and incubated for 4 h, followed by the addition of 100 µL of SDS-HCl solution (1 g SDS/10 mL d-H2O/17 µL 6 N HCl) and further incubated for 18 h. Multiskan FC microplate photometer (Thermo Fisher Scientific, Waltham, MA, USA) was used to measure the absorbance of the converted dye formazan at 570 nm. The concentration caused the 50% cell metabolic activity inhibition (IC50) expresses the cytotoxic activity of each glycoside. The experiments were conducted in triplicate, p ≤ 0.05.

T-47D cells = experiment: cells; format: cell-based, human; conditions: MTT, 24 h, read-out: Cytotoxicity, IC50, T-47D
Excerpt: as §1, §3

MDA-MB-231 cells [1] = experiment: cells; format: cell-based, human
Excerpt: as §1, §2

MDA-MB-231 cells [2] = experiment: Colony formation (clonogenic) assay, MDA-MB-231; format: cell-based, human
Method: (§4) The influence of glycosides on colony formation by MCF-10A or MDA-MB-231 cells was tested by the clonogenic assay. Cell density: 0.3 × 10^2/mL for MDA-MB-231 and for MCF-10A cells per well; incubation conditions: 10–12 days, 37 °C, atmosphere with 5% CO2; obtained: visible to eye colonies (at least 50 cells per colony); fixation with methanol (25 min); staining with 0.5% solution of crystal violet (25 min); washing and air-drying of plates. The counting of grown colonies was carried out using a BIO-PRINT-Cx4 Edge-Fixed Pad-Container (Vilber, Collégien, France) using Bio-Vision Software user and service manual-v18.01 (Vilber, Collégien, France). The results are presented as colony inhibition in comparison with the control.

MDA-MB-231 cells [3] = experiment: Wound scratch migration assay; format: cell-based, human; conditions: 24 h
Method: Attached to special migration plate plastic bottom MDA-MB-231 cells were separated by a silicone insert (Culture-insert 2 Well 24, ibiTreat). After removing an insert, the gap between the cells was 500 ± 50 μm. Cell debris and floating cells were deleted, and the fresh culture medium was added. Then, cells were treated with various concentrations of glycosides or culture medium only (vehicle control) and left for 24 hrs. Cell migration into the wound area was observed under a fluorescence microscope (MIB-2-FL, LOMO, Russia) with objective 10× magnification.

MCF-10A cells [4] = experiment: Colony formation (clonogenic) assay, MCF-10A; format: cell-based, human; conditions: 2 μM
Method: as §4

MCF-10A cells [5] = experiment: in vitro; format: cell-based, human
Excerpt: as §1, §2

[6] = 48 h, read-out: Cytotoxicity, IC50, 48 h, MCF-10A
[7] = 72 h, read-out: Cytotoxicity, IC50, 72 h, MCF-10A
[8] = MTT, 24 h, read-out: Cytotoxicity, IC50, MCF-10A
[9] = Homo sapiens, MDA-MB-231, 48 h, read-out: Cytotoxicity, IC50, 48 h, MDA-MB-231
[10] = Homo sapiens, MDA-MB-231, 72 h, read-out: Cytotoxicity, IC50, 72 h, MDA-MB-231
[11] = Homo sapiens, MDA-MB-231, MTT, 24 h, read-out: Cytotoxicity, IC50, MDA-MB-231
[12] = Homo sapiens, MDA-MB-231, inhibition out of control, read-out: Inhibition of colony growth of MDA-MB-231 cells

Row | Molecule | HC50 (human erythrocytes) | IC50 (in vitro; [6]) | IC50 (in vitro; [7]) | IC50 (in vitro; [8]) | IC50 (MCF-7 cells; Homo sapiens, MCF7) | IC50 (T-47D cells; Homo sapiens, T47D) | Tumor cell selectivity index (SI), IC50 MCF-10A / IC50 MDA-MB-231 (MDA-MB-231 cells [1]; 24 h) | Tumor cell selectivity index (SI), IC50 MCF-10A / IC50 MDA-MB-231 (MDA-MB-231 cells [1]; 48 h) | Tumor cell selectivity index (SI), IC50 MCF-10A / IC50 MDA-MB-231 (MDA-MB-231 cells [1]; 72 h) | IC50 (MDA-MB-231 cells [1]; [9]) | IC50 (MDA-MB-231 cells [1]; [10]) | IC50 (MDA-MB-231 cells [1]; [11]) | inhibition at 5 µM (MDA-MB-231 cells [2]; [12]) | other results
1 | CO[C@@H]1[C@@H](O)[C@H](O[C@@H]2[C@@H](O)[C@H](O[C@H]3[C@H](O)[C@@H](O[C@@H]4OC[C@@H](O)[C@H](O)[C@H]4O)[C@H](O[C@H]4[C@H](O[C@H]5CC[C@]6(C)C7CC[C@]8(C)[C@@H]([C@@](C)(O)[C@H](O)CC=C(C)C)CC[C@@]8(C)C7=CC[C@H]6C5(C)C)OC[C@@H](OS(=O)(=O)[O-])[C@@H]4O)O[C@@H]3C)O[C@H](COS(=O)(=O)[O-])[C@H]2O)O[C@H](CO)[C@H]1O.[Na+].[Na+] (stereo partly drawn) [Conicospermiumoside A3-1 (1), 3β-O-{3-O-methyl-β-D-glucopyranosyl-(1→3)-6-O-sodium sulfate-β-D-glucopyranosyl-(1→4)-[(1→2)-β-D-xylopyranosyl]-β-D-quinovopyranosyl-(1→2)-4-O-sodium sulfate-β-D-xylopyranosyl}-20R,22R-dihydroxylanosta-7,24-diene] | 770 ± 70 nM | 30.4 ± 1.05 µM | 39 ± 2.15 µM | 13.6 ± 0.71 µM | 41.7 ± 3.08 µM | 19.9 ± 1.02 µM | 2.29 | 11.97 | 3.14 | 2.54 ± 0.09 µM | 12.4 ± 0.75 µM | 5.93 ± 0.35 µM | 99.6% | 
2 | CO[C@@H]1[C@@H](O)[C@H](O[C@@H]2[C@@H](O)[C@H](O[C@H]3[C@H](O)[C@@H](O[C@@H]4OC[C@@H](O)[C@H](O)[C@H]4O)[C@H](O[C@H]4[C@H](O[C@H]5CC[C@]6(C)C7CC[C@]8(C)[C@@H]([C@@](C)(O)C(=O)CC=C(C)C)CC[C@@]8(C)C7=CC[C@H]6C5(C)C)OC[C@@H](OS(=O)(=O)[O-])[C@@H]4O)O[C@@H]3C)O[C@H](COS(=O)(=O)[O-])[C@H]2O)O[C@H](CO)[C@H]1O.[Na+].[Na+] (stereo partly drawn) [Conicospermiumoside A3-3 (3), 3β-O-{3-O-methyl-β-D-glucopyranosyl-(1→3)-6-O-sodium sulfate-β-D-glucopyranosyl-(1→4)-[(1→2)-β-D-xylopyranosyl]-β-D-quinovopyranosyl-(1→2)-4-O-sodium sulfate-β-D-xylopyranosyl}-20R-hydroxy,22-oxolanosta-7,24-diene] | 210 ± 20 nM | 10.6 ± 0.72 µM | 5.27 ± 0.36 µM | 11.4 ± 0.58 µM | 28.5 ± 1.18 µM | 10.7 ± 0.94 µM | 2.03 | 1.05 | 1.02 | 10.1 ± 0.71 µM | 5.18 ± 0.43 µM | 5.62 ± 0.26 µM | 98.8% | inhibition at 2 µM (MDA-MB-231 cells [2]; Homo sapiens, MDA-MB-231, 2 μM, read-out: Inhibition of colony growth of MDA-MB-231 cells): 96.8%; inhibition at 2 µM (MDA-MB-231 cells [3]; Homo sapiens, MDA-MB-231, 2 μM, read-out: Inhibition of migration of MDA-MB-231 cells as compared with control): 63.7%
3 | CO[C@@H]1[C@@H](O)[C@H](O[C@@H]2[C@@H](O)[C@H](O[C@H]3[C@H](O)[C@@H](O[C@@H]4OC[C@@H](O)[C@H](O)[C@H]4O)[C@H](O[C@H]4[C@H](O[C@H]5CC[C@]6(C)C7=CC[C@]8(C)[C@@H]([C@@](C)(O)C(=O)CC=C(C)C)CC[C@@]8(C)C7CC[C@H]6C5(C)C)OC[C@@H](OS(=O)(=O)[O-])[C@@H]4O)O[C@@H]3C)O[C@H](COS(=O)(=O)[O-])[C@H]2O)O[C@H](COS(=O)(=O)[O-])[C@H]1O.[Na+].[Na+].[Na+] (stereo partly drawn) [Conicospermiumoside A7-1 (4), 3β-O-{6-O-sodium sulfate-3-O-methyl-β-D-glucopyranosyl-(1→3)-6-O-sodium sulfate-β-D-glucopyranosyl-(1→4)-[(1→2)-β-D-xylopyranosyl]-β-D-quinovopyranosyl-(1→2)-4-O-sodium sulfate-β-D-xylopyranosyl}-(20R)-hydroxy-22-oxo-lanosta-9(11),24-diene] | 360 ± 40 nM | 35.5 ± 1.59 µM | 11.1 ± 0.57 µM | 40.2 ± 2.1 µM | > 50 µM | 19.7 ± 1.01 µM |  | 2.32 | 0.99 | 15.3 ± 1.01 µM | 11.2 ± 0.73 µM | 4.78 ± 0.23 µM |  | Influence on colony formation and growth of MCF-10A cells (MCF-10A cells [4]): did not influence
4 | DS-okhotoside A1-1 [DS-okhotoside A1-1 (7a)] |  |  |  |  |  |  | 2.76 | 1.20 | 1.42 |  |  |  |  | ED50, Erythrocytes (hemolytic activity) (human erythrocytes): 0.24 ± 0.02 µM; IC50 (MCF-10A cells [5]; [6]): 5.18 ± 0.28 µM; IC50 (MCF-10A cells [5]; [7]): 3.87 ± 0.24 µM; IC50 (MCF-10A cells [5]; [8]): 7.81 ± 0.32 µM; IC50 (MCF-7 cells): 18.8 ± 1.02 µM; IC50 (T-47D cells): 7.8 ± 0.31 µM; IC50 (MDA-MB-231 cells [1]; 48 h, read-out: Cytotoxicity, IC50, 48 h, MDA-MB-231): 4.32 ± 0.3 µM; IC50 (MDA-MB-231 cells [1]; 72 h, read-out: Cytotoxicity, IC50, 72 h, MDA-MB-231): 2.73 ± 0.18 µM; IC50 (MDA-MB-231 cells [1]; MTT, 24 h, read-out: Cytotoxicity, IC50, MDA-MB-231): 2.83 ± 0.36 µM; Inhibition of colony growth of MDA-MB-231 cells (MDA-MB-231 cells [2]; 1 μM, inhibition out of control): 97.2%; Inhibition of migration of MDA-MB-231 cells as compared with control (MDA-MB-231 cells [3]; 0.5 μM): 61.2%; Constraint on cell motility (migration) of MDA-MB-231 cells (MDA-MB-231 cells [3]; 1 μM): 85%
